From paper PMC12446476 (Nature Communications, 2025)
Converted amounts (≈) assume the structure as drawn. Like-named read-outs stand apart in the source and are kept apart here.

System: non-gonococcal Neisseria
Test: MIC determination for non-gonococcal Neisseria, agar dilution
Assay type: cell-based, Neisseria species
Text: The 2024 WHO N. gonorrhoeae reference strains were used for quality control. Only whole MIC doubling dilutions are reported. Clinical breakpoints or the epidemiological cutoff (ECOFF, to indicate azithromycin resistance) from EUCAST (v14.0, https://www.eucast.org/clinical_breakpoints) were used to classify isolates as antimicrobial susceptible or resistant. […] Two times the standard inoculum defined by CLSI was used to establish consistent growth in untreated control samples for some strains. In vitro time-kill assays were performed according to CLSI guidelines[65] using Columbia Broth (BD Difco) supplemented with 1% IsoVitaleX Enrichment (BD). Viable bacterial counts were generated by plating 10-fold serially diluted samples on GC agar plates containing 1% IsoVitaleX Enrichment (BD).

Structure (SMILES): Cc1c(CN(C)C(=O)/C=C/c2cnc3c(c2)N[C@H](C)[C@H](O)C(=O)N3)oc2ccccc12 [Debio 1453]
- MIC (Neisseria perflava 25, Replicate 3, read-out: Minimum inhibitory concentration): 1 µg/mL (≈ 2.38 µM)
- MIC (Neisseria polysaccharea 2, Consensus, read-out: Minimum inhibitory concentration): 0.064 µg/mL (≈ 0.152 µM)
- MIC (Neisseria polysaccharea 2, Replicate 1, read-out: Minimum inhibitory concentration): 0.064 µg/mL (≈ 0.152 µM)
- MIC (Neisseria polysaccharea 2, Replicate 2, read-out: Minimum inhibitory concentration): 0.064 µg/mL (≈ 0.152 µM)
- MIC (Neisseria polysaccharea 2, Replicate 3, read-out: Minimum inhibitory concentration): 0.064 µg/mL (≈ 0.152 µM)
- MIC (Neisseria sicca 1, Consensus, read-out: Minimum inhibitory concentration): 0.5 µg/mL (≈ 1.19 µM)
- MIC (Neisseria sicca 1, Replicate 1, read-out: Minimum inhibitory concentration): 0.25 µg/mL (≈ 0.595 µM)
- MIC (Neisseria sicca 1, Replicate 2, read-out: Minimum inhibitory concentration): 0.5 µg/mL (≈ 1.19 µM)
- MIC (Neisseria sicca 1, Replicate 3, read-out: Minimum inhibitory concentration): 0.5 µg/mL (≈ 1.19 µM)
- MIC (Neisseria sicca 2, Consensus, read-out: Minimum inhibitory concentration): 0.25 µg/mL (≈ 0.595 µM)
- MIC (Neisseria sicca 2, Replicate 1, read-out: Minimum inhibitory concentration): 0.25 µg/mL (≈ 0.595 µM)
- MIC (Neisseria sicca 2, Replicate 2, read-out: Minimum inhibitory concentration): 0.25 µg/mL (≈ 0.595 µM)
- MIC (Neisseria sicca 2, Replicate 3, read-out: Minimum inhibitory concentration): 0.5 µg/mL (≈ 1.19 µM)
- MIC (Neisseria sicca 3, Consensus, read-out: Minimum inhibitory concentration): 0.008 µg/mL (≈ 0.019 µM)
- MIC (Neisseria sicca 3, Replicate 1, read-out: Minimum inhibitory concentration): 0.008 µg/mL (≈ 0.019 µM)
- MIC (Neisseria sicca 3, Replicate 2, read-out: Minimum inhibitory concentration): 0.016 µg/mL (≈ 0.0381 µM)
- MIC (Neisseria sicca 3, Replicate 3, read-out: Minimum inhibitory concentration): 0.008 µg/mL (≈ 0.019 µM)
- MIC (Neisseria sicca 4, Replicate 3, read-out: Minimum inhibitory concentration): 0.5 µg/mL (≈ 1.19 µM)
- MIC (Neisseria sicca 5, Consensus, read-out: Minimum inhibitory concentration): 0.016 µg/mL (≈ 0.0381 µM)
- MIC (Neisseria sicca 5, Replicate 1, read-out: Minimum inhibitory concentration): 0.008 µg/mL (≈ 0.019 µM)
- MIC (Neisseria sicca 5, Replicate 2, read-out: Minimum inhibitory concentration): 0.016 µg/mL (≈ 0.0381 µM)
- MIC (Neisseria sicca 5, Replicate 3, read-out: Minimum inhibitory concentration): 0.016 µg/mL (≈ 0.0381 µM)
- MIC (Neisseria sicca 6, Consensus, read-out: Minimum inhibitory concentration): 1 µg/mL (≈ 2.38 µM)
- MIC (Neisseria sicca 6, Replicate 1, read-out: Minimum inhibitory concentration): 1 µg/mL (≈ 2.38 µM)
- MIC (Neisseria sicca 6, Replicate 2, read-out: Minimum inhibitory concentration): 1 µg/mL (≈ 2.38 µM)
- MIC (Neisseria sicca 6, Replicate 3, read-out: Minimum inhibitory concentration): 1 µg/mL (≈ 2.38 µM)
- MIC (Neisseria sicca 7, Consensus, read-out: Minimum inhibitory concentration): 0.008 µg/mL (≈ 0.019 µM)
- MIC (Neisseria sicca 7, Replicate 1, read-out: Minimum inhibitory concentration): 0.008 µg/mL (≈ 0.019 µM)
- MIC (Neisseria sicca 7, Replicate 2, read-out: Minimum inhibitory concentration): 0.008 µg/mL (≈ 0.019 µM)
- MIC (Neisseria sicca 7, Replicate 3, read-out: Minimum inhibitory concentration): 0.008 µg/mL (≈ 0.019 µM)
- MIC (Neisseria sicca 8, Consensus, read-out: Minimum inhibitory concentration): 1 µg/mL (≈ 2.38 µM)
- MIC (Neisseria sicca 8, Replicate 1, read-out: Minimum inhibitory concentration): 0.5 µg/mL (≈ 1.19 µM)
- MIC (Neisseria sicca 8, Replicate 2, read-out: Minimum inhibitory concentration): 1 µg/mL (≈ 2.38 µM)
- MIC (Neisseria sicca 8, Replicate 3, read-out: Minimum inhibitory concentration): 1 µg/mL (≈ 2.38 µM)
- MIC (Neisseria sicca 9, Consensus, read-out: Minimum inhibitory concentration): 0.25 µg/mL (≈ 0.595 µM)
- MIC (Neisseria sicca 9, Replicate 1, read-out: Minimum inhibitory concentration): 0.25 µg/mL (≈ 0.595 µM)
- MIC (Neisseria sicca 9, Replicate 2, read-out: Minimum inhibitory concentration): 0.25 µg/mL (≈ 0.595 µM)
- MIC (Neisseria sicca 9, Replicate 3, read-out: Minimum inhibitory concentration): 0.25 µg/mL (≈ 0.595 µM)
- MIC (Neisseria subflava 1, Consensus, read-out: Minimum inhibitory concentration): 2 µg/mL (≈ 4.76 µM)
- MIC (Neisseria subflava 1, Replicate 1, read-out: Minimum inhibitory concentration): 2 µg/mL (≈ 4.76 µM)
- MIC (Neisseria subflava 1, Replicate 2, read-out: Minimum inhibitory concentration): 2 µg/mL (≈ 4.76 µM)
- MIC (Neisseria subflava 1, Replicate 3, read-out: Minimum inhibitory concentration): 2 µg/mL (≈ 4.76 µM)
- MIC (Neisseria subflava 2, Consensus, read-out: Minimum inhibitory concentration): 0.25 µg/mL (≈ 0.595 µM)
- MIC (Neisseria subflava 2, Replicate 1, read-out: Minimum inhibitory concentration): 0.25 µg/mL (≈ 0.595 µM)
- MIC (Neisseria subflava 2, Replicate 2, read-out: Minimum inhibitory concentration): 0.25 µg/mL (≈ 0.595 µM)
- MIC (Neisseria subflava 2, Replicate 3, read-out: Minimum inhibitory concentration): 0.25 µg/mL (≈ 0.595 µM)
- MIC (Neisseria subflava 3, Consensus, read-out: Minimum inhibitory concentration): 0.25 µg/mL (≈ 0.595 µM)
- MIC (Neisseria subflava 3, Replicate 1, read-out: Minimum inhibitory concentration): 0.25 µg/mL (≈ 0.595 µM)
- MIC (Neisseria subflava 3, Replicate 2, read-out: Minimum inhibitory concentration): 0.25 µg/mL (≈ 0.595 µM)
- MIC (Neisseria subflava 4, Consensus, read-out: Minimum inhibitory concentration): 0.064 µg/mL (≈ 0.152 µM)
- MIC (Neisseria subflava 4, Replicate 1, read-out: Minimum inhibitory concentration): 0.064 µg/mL (≈ 0.152 µM)
- MIC (Neisseria subflava 4, Replicate 2, read-out: Minimum inhibitory concentration): 0.064 µg/mL (≈ 0.152 µM)
- MIC (Neisseria subflava 4, Replicate 3, read-out: Minimum inhibitory concentration): 0.064 µg/mL (≈ 0.152 µM)
- MIC (Neisseria subflava 5, Consensus, read-out: Minimum inhibitory concentration): 0.5 µg/mL (≈ 1.19 µM)
- MIC (Neisseria subflava 5, Replicate 1, read-out: Minimum inhibitory concentration): 0.5 µg/mL (≈ 1.19 µM)
- MIC (Neisseria subflava 5, Replicate 2, read-out: Minimum inhibitory concentration): 0.5 µg/mL (≈ 1.19 µM)
- MIC (Neisseria subflava 5, Replicate 3, read-out: Minimum inhibitory concentration): 0.5 µg/mL (≈ 1.19 µM)
- MIC (po, Neisseria oralis 1, Consensus, read-out: Minimum inhibitory concentration): 0.25 µg/mL (≈ 0.595 µM)
- MIC (po, Neisseria oralis 1, Replicate 1, read-out: Minimum inhibitory concentration): 0.25 µg/mL (≈ 0.595 µM)
- MIC (po, Neisseria oralis 1, Replicate 2, read-out: Minimum inhibitory concentration): 0.25 µg/mL (≈ 0.595 µM)
- MIC (po, Neisseria oralis 1, Replicate 3, read-out: Minimum inhibitory concentration): 0.25 µg/mL (≈ 0.595 µM)
- MIC (read-out: Minimum inhibitory concentration, Neisseria cinerea 4, Consensus): 0.125 µg/mL (≈ 0.297 µM)
- MIC (read-out: Minimum inhibitory concentration, Neisseria cinerea 4, Replicate 1): 0.125 µg/mL (≈ 0.297 µM)
- MIC (read-out: Minimum inhibitory concentration, Neisseria cinerea 4, Replicate 2): 0.125 µg/mL (≈ 0.297 µM)
- MIC (read-out: Minimum inhibitory concentration, Neisseria cinerea 4, Replicate 3): 0.125 µg/mL (≈ 0.297 µM)
- MIC (read-out: Minimum inhibitory concentration, Neisseria cinerea 5, Consensus): 0.125 µg/mL (≈ 0.297 µM)
- MIC (read-out: Minimum inhibitory concentration, Neisseria cinerea 5, Replicate 1): 0.125 µg/mL (≈ 0.297 µM)
- MIC (read-out: Minimum inhibitory concentration, Neisseria cinerea 5, Replicate 2): 0.125 µg/mL (≈ 0.297 µM)
- MIC (read-out: Minimum inhibitory concentration, Neisseria cinerea 5, Replicate 3): 0.125 µg/mL (≈ 0.297 µM)
- MIC (read-out: Minimum inhibitory concentration, Neisseria cinerea 8, Consensus): 0.125 µg/mL (≈ 0.297 µM)
- MIC (read-out: Minimum inhibitory concentration, Neisseria cinerea 8, Replicate 2): 0.125 µg/mL (≈ 0.297 µM)
- MIC (read-out: Minimum inhibitory concentration, Neisseria cinerea 8, Replicate 3): 0.125 µg/mL (≈ 0.297 µM)
- MIC (read-out: Minimum inhibitory concentration, Neisseria elongata 1, Consensus): 0.125 µg/mL (≈ 0.297 µM)
- MIC (read-out: Minimum inhibitory concentration, Neisseria elongata 1, Replicate 1): 0.125 µg/mL (≈ 0.297 µM)
- MIC (read-out: Minimum inhibitory concentration, Neisseria elongata 1, Replicate 2): 0.125 µg/mL (≈ 0.297 µM)
- MIC (read-out: Minimum inhibitory concentration, Neisseria elongata 1, Replicate 3): 0.125 µg/mL (≈ 0.297 µM)
- MIC (read-out: Minimum inhibitory concentration, Neisseria flava 1, Consensus): 0.125 µg/mL (≈ 0.297 µM)
- MIC (read-out: Minimum inhibitory concentration, Neisseria flava 1, Replicate 1): 0.125 µg/mL (≈ 0.297 µM)
- MIC (read-out: Minimum inhibitory concentration, Neisseria flava 1, Replicate 3): 0.125 µg/mL (≈ 0.297 µM)
- MIC (read-out: Minimum inhibitory concentration, Neisseria flavescens 2, Consensus): 0.125 µg/mL (≈ 0.297 µM)
- MIC (read-out: Minimum inhibitory concentration, Neisseria flavescens 2, Replicate 1): 0.125 µg/mL (≈ 0.297 µM)
- MIC (read-out: Minimum inhibitory concentration, Neisseria flavescens 2, Replicate 3): 0.125 µg/mL (≈ 0.297 µM)
- MIC (read-out: Minimum inhibitory concentration, Neisseria flavescens 8, Consensus): 0.125 µg/mL (≈ 0.297 µM)
- MIC (read-out: Minimum inhibitory concentration, Neisseria flavescens 8, Replicate 2): 0.125 µg/mL (≈ 0.297 µM)
- MIC (read-out: Minimum inhibitory concentration, Neisseria flavescens 8, Replicate 3): 0.125 µg/mL (≈ 0.297 µM)
- MIC (read-out: Minimum inhibitory concentration, Neisseria flavescens 10, Consensus): 0.125 µg/mL (≈ 0.297 µM)
- MIC (read-out: Minimum inhibitory concentration, Neisseria flavescens 10, Replicate 1): 0.125 µg/mL (≈ 0.297 µM)
- MIC (read-out: Minimum inhibitory concentration, Neisseria flavescens 10, Replicate 3): 0.125 µg/mL (≈ 0.297 µM)
- MIC (read-out: Minimum inhibitory concentration, Neisseria flavescens 12, Replicate 3): 0.125 µg/mL (≈ 0.297 µM)
- MIC (read-out: Minimum inhibitory concentration, Neisseria mucosa 2, Consensus): 0.125 µg/mL (≈ 0.297 µM)
- MIC (read-out: Minimum inhibitory concentration, Neisseria mucosa 2, Replicate 2): 0.125 µg/mL (≈ 0.297 µM)
- MIC (read-out: Minimum inhibitory concentration, Neisseria mucosa 2, Replicate 3): 0.125 µg/mL (≈ 0.297 µM)
- MIC (read-out: Minimum inhibitory concentration, Neisseria perflava 5, Consensus): 0.125 µg/mL (≈ 0.297 µM)
- MIC (read-out: Minimum inhibitory concentration, Neisseria perflava 5, Replicate 1): 0.125 µg/mL (≈ 0.297 µM)
- MIC (read-out: Minimum inhibitory concentration, Neisseria perflava 5, Replicate 2): 0.125 µg/mL (≈ 0.297 µM)
- MIC (read-out: Minimum inhibitory concentration, Neisseria perflava 5, Replicate 3): 0.125 µg/mL (≈ 0.297 µM)
- MIC (read-out: Minimum inhibitory concentration, Neisseria perflava 18, Consensus): 0.125 µg/mL (≈ 0.297 µM)
- MIC (read-out: Minimum inhibitory concentration, Neisseria perflava 18, Replicate 1): 0.125 µg/mL (≈ 0.297 µM)
- MIC (read-out: Minimum inhibitory concentration, Neisseria perflava 18, Replicate 3): 0.125 µg/mL (≈ 0.297 µM)
- MIC (read-out: Minimum inhibitory concentration, Neisseria perflava 24, Consensus): 0.125 µg/mL (≈ 0.297 µM)
- MIC (read-out: Minimum inhibitory concentration, Neisseria perflava 24, Replicate 1): 0.125 µg/mL (≈ 0.297 µM)
- MIC (read-out: Minimum inhibitory concentration, Neisseria perflava 24, Replicate 2): 0.125 µg/mL (≈ 0.297 µM)
- MIC (read-out: Minimum inhibitory concentration, Neisseria perflava 24, Replicate 3): 0.125 µg/mL (≈ 0.297 µM)
- MIC (read-out: Minimum inhibitory concentration, Neisseria polysaccharea 1, Consensus): 0.125 µg/mL (≈ 0.297 µM)
- MIC (read-out: Minimum inhibitory concentration, Neisseria polysaccharea 1, Replicate 1): 0.125 µg/mL (≈ 0.297 µM)
- MIC (read-out: Minimum inhibitory concentration, Neisseria polysaccharea 1, Replicate 2): 0.125 µg/mL (≈ 0.297 µM)
- MIC (read-out: Minimum inhibitory concentration, Neisseria polysaccharea 1, Replicate 3): 0.125 µg/mL (≈ 0.297 µM)
- MIC (read-out: Minimum inhibitory concentration, Neisseria sicca 4, Consensus): 0.125 µg/mL (≈ 0.297 µM)
- MIC (read-out: Minimum inhibitory concentration, Neisseria sicca 4, Replicate 1): 0.125 µg/mL (≈ 0.297 µM)
- MIC (read-out: Minimum inhibitory concentration, Neisseria sicca 4, Replicate 2): 0.125 µg/mL (≈ 0.297 µM)
- MIC (read-out: Minimum inhibitory concentration, Neisseria subflava 3, Replicate 3): 0.125 µg/mL (≈ 0.297 µM)
